Assay results as given in patent EP4631959A2, “NOVEL MINIGASTRIN-DERIVED CHOLECYSTOKININ 2 RECEPTOR BINDING MOLECULES FOR IMAGING AND TARGETED RADIOTHERAPY” (priority 2022, dated 2024).
Read-outs that look alike come from different tables or passages of the source. Starred links: 1 amine or outer side, 2 acyl side, 3 side chain; linkers in the order of their positions; H or OH if unused. Non-standard residues stand in square brackets, D forms with d. Residues, ends and D or L forms follow the SMILES beside them. *: point of attachment. DOTAGA = O=C(O)CN1CCN(CC(=O)O)CCN(C(CCC(=O)*)C(=O)O)CCN(CC(=O)O)CC1; X2 = O=C(O)CN1CCN(CC(=O)O)CCN([C@H](CCC(=O)*)C(=O)O)CCN(CC(=O)O)CC1; Benzoyl(4-SiFtBu2) = CC(C)(C)[Si](F)(c1ccc(C(=O)*)cc1)C(C)(C)C; DOTA = O=C(O)CN1CCN(CC(=O)O)CCN(CC(=O)*)CCN(CC(=O)O)CC1; d(γGlu) = O=C(O)[C@@H](CCC(=O)[*:2])N[*:1]; 1Nal = N[C@@H](Cc1cccc2ccccc12)C(=O)O; NMeNle = CCCC[C@H](NC)C(=O)O; Nle = CCCC[C@H](N)C(=O)O; dDap = NC[C@@H](N)C(=O)O

Experiments:
CCK-2R = target: T1, CCK-2R (Rattus norvegicus, UniProt P30553); experiment: Determination of IC50: CCK-2R affinity on AR4-2J cells, competition with [^177Lu]Lu-DOTA-PP-F11N; assay type: binding
T1 construct: The CCK-2R expressing rat pancreatic tumor cells AR4-2J; host or cells: AR4-2J rat pancreatic tumor cells
T1 sequence (P30553 1-452): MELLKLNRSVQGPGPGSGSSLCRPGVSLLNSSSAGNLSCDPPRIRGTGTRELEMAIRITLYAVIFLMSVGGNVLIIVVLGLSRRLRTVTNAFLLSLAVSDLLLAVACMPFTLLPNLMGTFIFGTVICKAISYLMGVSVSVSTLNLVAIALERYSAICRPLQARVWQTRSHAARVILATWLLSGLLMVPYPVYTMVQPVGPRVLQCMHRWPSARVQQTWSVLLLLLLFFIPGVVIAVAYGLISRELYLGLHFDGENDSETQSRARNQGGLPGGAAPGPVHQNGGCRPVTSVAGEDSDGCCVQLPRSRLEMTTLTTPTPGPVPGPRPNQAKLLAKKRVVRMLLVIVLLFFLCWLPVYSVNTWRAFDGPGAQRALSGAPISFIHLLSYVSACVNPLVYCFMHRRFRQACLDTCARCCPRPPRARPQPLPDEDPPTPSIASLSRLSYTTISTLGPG
Protocol: AR4-2J cells were harvested 24 ± 2 h before the experiment and seeded in 24-well plates (2.0 × 10^5 cells in 1 mL/well). After removal of the nutrient medium (RPMI 1640, 5 mM L-Gln, 5 mL non-essential amino acids (100×), 10% FCS), the cells were washed once with 500 µL PBS. Thereafter, 200 µL nutrient medium (5% BSA, v/v) were added. Next, 25 µL per well of solutions containing either nutrient medium (5% BSA, v/v) as control or the respective compound in increasing concentration (10^-10 - 10^-4 M), were added with subsequent addition of 25 µL [^177Lu]Lu-DOTA-PP-F11N (0.3 pmol/well).
All experiments were performed in triplicate for each concentration. After 3 h incubation at 37 °C, the experiment was terminated by removal of the medium and consecutive rinsing with 300 µL PBS. The media of both steps were combined in one fraction and represent the amount of free radiolabeled reference. Afterwards, the cells were lysed with 300 µL of 1 M NaOH for at least 15 min and united with the 300 µL NaOH of the following washing step. Quantification of bound and free radiolabeled reference was accomplished in a γ-counter. IC50 determination for each conjugate was repeated twice.

[1] = n-Octanol-PBS distribution coefficient (logD7.4); assay type: physicochemical; details: pH = 7.4, ^177Lu-labeled
Protocol: Approximately 1 MBq of the labeled tracer was dissolved in 1 mL of a 1/1 mixture (v/v) of phosphate buffered saline (PBS, pH = 7.4) and n-octanol in an Eppendorf tube (1.5 mL). After vigorous mixing of the suspension for 3 min at rt, the vial was centrifuged at 9,000 rpm for 5 min (Biofuge 15, Heraeus Sepatech, Osterode, Germany) and 200 µL aliquots of both layers were measured in a γ-counter. The experiment was repeated at least five times.

[2] = read-out: IC50 [nM] (n = 3), ^natLu-labeled; AR4-2J cells; ^natLu-labeled
[3] = AR4-2J cells; ^natLu-labeled; read-out: IC50 [nM] (n = 3), ^natLu-labeled

Row | Compound | IC50 (CCK-2R; [2]) | logD7.4 (n ≥ 5), ^177Lu-labeled [1] | IC50 (CCK-2R; [3])
1 | CCCC[C@H](NC(=O)[C@H](Cc1c[nH]c2ccccc12)NC(=O)CNC(=O)[C@H](Cc1ccc(O)cc1)NC(=O)[C@H](C)NC(=O)CC[C@@H](NC(=O)CC[C@@H](NC(=O)CC[C@@H](NC(=O)CC[C@@H](NC(=O)CC[C@@H](NC(=O)CCCNC(=O)CCCNC(=O)CCCNC(=O)[C@@H](CNC(=O)c1ccc([Si](F)(C(C)(C)C)C(C)(C)C)cc1)NC(=O)CN1CCN(CC(=O)O)CCN(CC(=O)O)CCN(CC(=O)O)CC1)C(=O)O)C(=O)O)C(=O)O)C(=O)O)C(=O)O)C(=O)N[C@@H](CC(=O)O)C(=O)N[C@@H](Cc1ccccc1)C(N)=O [DOTA-MG-SiFA-46, DOTA-dap(SiFA)-(GABA)3-(γ-glu)5-F11N] | 5.52 ± 0.25 nM | −2.09 ± 0.07 | 
2 | CCCC[C@H](NC(=O)[C@H](Cc1c[nH]c2ccccc12)NC(=O)CNC(=O)[C@H](Cc1ccc(O)cc1)NC(=O)[C@H](C)NC(=O)[C@@H](CNC(=O)c1ccc([Si](F)(C(C)(C)C)C(C)(C)C)cc1)NC(=O)CC[C@@H](NC(=O)CC[C@@H](NC(=O)CC[C@@H](NC(=O)CC[C@@H](NC(=O)CC[C@@H](NC(=O)CC[C@@H](NC(=O)CC[C@H](C(=O)O)N1CCN(CC(=O)O)CCN(CC(=O)O)CCN(CC(=O)O)CC1)C(=O)O)C(=O)O)C(=O)O)C(=O)O)C(=O)O)C(=O)O)C(=O)N[C@@H](CC(=O)O)C(=O)N[C@@H](Cc1ccccc1)C(N)=O [DOTAGA-MG-SiFA-13, DOTAGA-γ-glu-[dap(SiFA)^6]γ-F11N] ({X2-d(γGlu)-d(γGlu)-d(γGlu)-d(γGlu)-d(γGlu)-d(γGlu)}-[dDap](Benzoyl(4-SiFtBu2))AYGW[Nle]DF-NH2) |  | −2.15 ± 0.08 | 863 ± 147 nM
3 | CCCC[C@H](NC(=O)[C@H](Cc1c[nH]c2ccccc12)NC(=O)CNC(=O)[C@H](Cc1ccc(O)cc1)NC(=O)[C@H](C)NC(=O)CC[C@@H](NC(=O)CC[C@@H](NC(=O)CC[C@@H](NC(=O)CC[C@@H](NC(=O)CC[C@@H](NC(=O)CC[C@@H](NC(=O)CC[C@@H](NC(=O)CC[C@@H](CO)NC(=O)[C@@H](CNC(=O)c1ccc([Si](F)(C(C)(C)C)C(C)(C)C)cc1)NC(=O)CN1CCN(CC(=O)O)CCN(CC(=O)O)CCN(CC(=O)O)CC1)C(=O)O)C(=O)O)C(=O)O)C(=O)O)C(=O)O)C(=O)O)C(=O)O)C(=O)N[C@@H](CC(=O)O)C(=O)N[C@@H](Cc1ccccc1)C(N)=O [DOTA-MG-SiFA-29, DOTA-dap(SiFA)-Glutamol-(γ-glu)7-F11N] | 6.55 ± 1.23 nM | −1.88 ± 0.07 | 
4 | CCCC[C@H](NC(=O)[C@H](Cc1c[nH]c2ccccc12)NC(=O)CNC(=O)[C@H](Cc1ccc(O)cc1)NC(=O)[C@H](C)NC(=O)CC[C@@H](NC(=O)CC[C@@H](NC(=O)CC[C@@H](NC(=O)CC[C@@H](NC(=O)CC[C@@H](NC(=O)CC[C@@H](NC(=O)CC[C@@H](NC(=O)CC[C@@H](NC(=O)[C@@H](CNC(=O)c1ccc([Si](F)(C(C)(C)C)C(C)(C)C)cc1)NC(=O)CCC(C(=O)O)N1CCN(CC(=O)O)CCN(CC(=O)O)CCN(CC(=O)O)CC1)C(=O)O)C(=O)O)C(=O)O)C(=O)O)C(=O)O)C(=O)O)C(=O)O)C(=O)O)C(=O)N[C@@H](CC(=O)O)C(=O)N[C@@H](Cc1ccccc1)C(N)=O (some centres unmarked) [DOTAGA-MG-SiFA-23, DOTAGA-dap(SiFA)-(γ-glu)2-γ-F11N] | 20.4 ± 2 nM | −2.10 ± 0.06 | 
5 | CCCC[C@H](NC(=O)[C@H](Cc1c[nH]c2ccccc12)NC(=O)CNC(=O)[C@H](Cc1ccc(O)cc1)NC(=O)[C@H](C)NC(=O)CC[C@@H](NC(=O)CC[C@@H](NC(=O)CC[C@@H](NC(=O)CC[C@@H](NC(=O)[C@@H](CNC(=O)c1ccc([Si](F)(C(C)(C)C)C(C)(C)C)cc1)NC(=O)CC[C@@H](NC(=O)CC[C@@H](NC(=O)CCC(C(=O)O)N1CCN(CC(=O)O)CCN(CC(=O)O)CCN(CC(=O)O)CC1)C(=O)O)C(=O)O)C(=O)O)C(=O)O)C(=O)O)C(=O)O)C(=O)N[C@@H](CC(=O)O)C(=O)N[C@@H](Cc1ccccc1)C(N)=O (some centres unmarked) [DOTAGA-MG-SiFA-17, DOTAGA-γ-glu-[dap(SiFA)^2]γ-F11N] ({DOTAGA-d(γGlu)-d(γGlu)}-[dDap](Benzoyl(4-SiFtBu2))[d(γGlu)][d(γGlu)][d(γGlu)][d(γGlu)]AYGW[Nle]DF-NH2) | 51.3 ± 9.3 nM | −2.26 ± 0.05 | 
6 | CCCC[C@@H](C(=O)N[C@@H](CC(=O)O)C(=O)N[C@@H](Cc1cccc2ccccc12)C(N)=O)N(C)C(=O)[C@H](Cc1c[nH]c2ccccc12)NC(=O)CNC(=O)[C@H](Cc1ccc(O)cc1)NC(=O)[C@H](C)NC(=O)CC[C@@H](NC(=O)CC[C@@H](NC(=O)CC[C@@H](NC(=O)CC[C@@H](NC(=O)CC[C@@H](NC(=O)CC[C@@H](NC(=O)CC[C@@H](NC(=O)CC[C@@H](NC(=O)[C@@H](CNC(=O)c1ccc([Si](F)(C(C)(C)C)C(C)(C)C)cc1)NC(=O)CN1CCN(CC(=O)O)CCN(CC(=O)O)CCN(CC(=O)O)CC1)C(=O)O)C(=O)O)C(=O)O)C(=O)O)C(=O)O)C(=O)O)C(=O)O)C(=O)O [DOTA-MG-SiFA-40, DOTA-dap(SiFA)-(γ-glu)8-MGS5] | 8.27 ± 0.35 nM | −1.83 ± 0.04 | 
7 | CCCC[C@H](NC(=O)[C@H](Cc1c[nH]c2ccccc12)NC(=O)CNC(=O)[C@H](Cc1ccc(O)cc1)NC(=O)[C@H](C)NC(=O)[C@@H](CCC(=O)O)NC(=O)[C@@H](CNC(=O)c1ccc([Si](F)(C(C)(C)C)C(C)(C)C)cc1)NC(=O)[C@@H](CCC(=O)O)NC(=O)[C@@H](CCC(=O)O)NC(=O)[C@@H](CCC(=O)O)NC(=O)[C@@H](CCC(=O)O)NC(=O)[C@@H](CCC(=O)O)NC(=O)CCC(C(=O)O)N1CCN(CC(=O)O)CCN(CC(=O)O)CCN(CC(=O)O)CC1)C(=O)N[C@@H](CC(=O)O)C(=O)N[C@@H](Cc1ccccc1)C(N)=O (some centres unmarked) [DOTAGA-MG-SiFA-6, DOTAGA-glu-[dap(SiFA)^5]F11N] ({DOTAGA}-[dE][dE][dE][dE][dE][dDap](Benzoyl(4-SiFtBu2))[dE]AYGW[Nle]DF-NH2) | 155 ± 18 nM | −1.95 ± 0.09 | 
8 | CCCC[C@H](NC(=O)[C@H](Cc1c[nH]c2ccccc12)NC(=O)CNC(=O)[C@H](Cc1ccc(O)cc1)NC(=O)[C@H](C)NC(=O)CC[C@@H](NC(=O)CC[C@@H](NC(=O)CC[C@@H](NC(=O)[C@@H](CNC(=O)c1ccc([Si](F)(C(C)(C)C)C(C)(C)C)cc1)NC(=O)CC[C@@H](NC(=O)CC[C@@H](NC(=O)CC[C@@H](NC(=O)CC[C@H](C(=O)O)N1CCN(CC(=O)O)CCN(CC(=O)O)CCN(CC(=O)O)CC1)C(=O)O)C(=O)O)C(=O)O)C(=O)O)C(=O)O)C(=O)O)C(=O)N[C@@H](CC(=O)O)C(=O)N[C@@H](Cc1ccccc1)C(N)=O [DOTAGA-MG-SiFA-16, DOTAGA-γ-glu-[dap(SiFA)^3]γ-F11N] ({X2-d(γGlu)-d(γGlu)-d(γGlu)}-[dDap](Benzoyl(4-SiFtBu2))[d(γGlu)][d(γGlu)][d(γGlu)]AYGW[Nle]DF-NH2) |  | −2.57 ± 0.06 | 68.5 ± 11.4 nM
9 | CCCC[C@@H](C(=O)N[C@@H](CC(=O)O)C(=O)N[C@@H](Cc1cccc2ccccc12)C(N)=O)N(C)C(=O)[C@H](Cc1c[nH]c2ccccc12)NC(=O)CNC(=O)[C@H](Cc1ccc(O)cc1)NC(=O)CNC(=O)CC[C@@H](NC(=O)CN1CCN(CC(=O)O)CCN(CC(=O)O)CCN(CC(=O)O)CC1)C(=O)O [DOTA-CCK-59, DOTA-γ-glu-Gly-Tyr-Gly-Trp-(N-Me)Nle-Asp-1-Nal-NH2] ({DOTA-d(γGlu)}-GYGW[NMeNle]D[1Nal]-NH2) |  | −2.63 ± 0.05 | 4.2 ± 0.5 nM
10 | CCCC[C@@H](C(=O)N[C@@H](CC(=O)O)C(=O)N[C@@H](Cc1cccc2ccccc12)C(N)=O)N(C)C(=O)[C@H](Cc1c[nH]c2ccccc12)NC(=O)CNC(=O)[C@H](Cc1ccc(O)cc1)NC(=O)CNC(=O)CNC(=O)CN1CCN(CC(=O)O)CCN(CC(=O)O)CCN(CC(=O)O)CC1 [DOTA-CCK-56, DOTA-(Gly)2-Tyr-Gly-Trp-(N-Me)NIe-Asp-1-Nal-NH2] ({DOTA}-GGYGW[NMeNle]D[1Nal]-NH2) |  | −1.38 ± 0.07 | 4.9 ± 0.8 nM
